ChEMBL document CHEMBL4382200, “Discovery of Novel 7-Aryl 7-Deazapurine 3'-Deoxy-ribofuranosyl Nucleosides with Potent Activity against Trypanosoma cruzi” (J Med Chem, 2018)
Activity calls are given as the source filed them. The calls are words filed in the database; no cut-off is given here.

Experiments:
[1] = Therapeutic index, ratio EC50 for human MRC5 SV2 cells to EC50 for Trypanosoma cruzi Tulahuen CL2 intracellular amastigotes; assay type: toxicity, cell-based; conditions: read-out: Ratio EC50
Trypanosoma cruzi [2] = assay: Antiparasitic activity against Trypanosoma cruzi Tulahuen CL2 intracellular amastigotes expressing beta-galactosidase infected in human MRC5 SV2 cells after 7 days by chlorophenol red beta-D-galactopyranoside-based spectrophotometric analysis; assay type: functional, organism-based; conditions: Tulahuen CL2, MRC-5 SV2, 168 h
[3] = Cytotoxicity against human MRC5 SV2 cells assessed as reduction in cell viability after 3 days resazurin-based fluorimetric assay; conditions: MRC-5 SV2, 72 h
Cytochrome P450 [4] = assay: Drug metabolism in human liver microsome S9 fraction assessed as CYP450-mediated metabolism by measuring compound remaining at 5 uM pretreated with NADPH and measured after 15 mins by UPLC-MS/MS analysis; assay type: ADME, microsomes; conditions: microsomes, 0.25 h, 5 µM
[5] = Drug metabolism in mouse liver microsome S9 fraction assessed as CYP450-mediated metabolism by measuring compound remaining at 5 uM pretreated with NADPH and measured after 15 mins by UPLC-MS/MS analysis; assay type: ADME, microsomes; conditions: microsomes, 0.25 h, 5 µM
[6] = Drug metabolism in mouse liver microsome S9 fraction assessed as CYP450-mediated metabolism by measuring compound remaining at 5 uM pretreated with NADPH and measured after 30 mins by UPLC-MS/MS analysis; assay type: ADME, microsomes; conditions: microsomes, 0.5 h, 5 µM
[7] = Drug metabolism in mouse liver microsome S9 fraction assessed as CYP450-mediated metabolism by measuring compound remaining at 5 uM pretreated with NADPH and measured after 60 mins by UPLC-MS/MS analysis; assay type: ADME, microsomes; conditions: microsomes, 1 h, 5 µM
[8] = Drug metabolism in rat liver microsome S9 fraction assessed as CYP450-mediated metabolism by measuring compound remaining at 5 uM pretreated with NADPH and measured after 15 mins by UPLC-MS/MS analysis; assay type: ADME, microsomes; conditions: microsomes, 0.25 h, 5 µM
[9] = Drug metabolism in rat liver microsome S9 fraction assessed as CYP450-mediated metabolism by measuring compound remaining at 5 uM pretreated with NADPH and measured after 30 mins by UPLC-MS/MS analysis; assay type: ADME, microsomes; conditions: microsomes, 0.5 h, 5 µM
[10] = Drug metabolism in rat liver microsome S9 fraction assessed as CYP450-mediated metabolism by measuring compound remaining at 5 uM pretreated with NADPH and measured after 60 mins by UPLC-MS/MS analysis; assay type: ADME, microsomes; conditions: microsomes, 1 h, 5 µM
[11] = Drug metabolism in dog liver microsome S9 fraction assessed as CYP450-mediated metabolism by measuring compound remaining at 5 uM pretreated with NADPH and measured after 15 mins by UPLC-MS/MS analysis; assay type: ADME, microsomes, Canis lupus familiaris; conditions: microsomes, 0.25 h, 5 µM
[12] = Drug metabolism in dog liver microsome S9 fraction assessed as CYP450-mediated metabolism by measuring compound remaining at 5 uM pretreated with NADPH and measured after 30 mins by UPLC-MS/MS analysis; assay type: ADME, microsomes, Canis lupus familiaris; conditions: microsomes, 0.5 h, 5 µM
[13] = Drug metabolism in dog liver microsome S9 fraction assessed as CYP450-mediated metabolism by measuring compound remaining at 5 uM pretreated with NADPH and measured after 60 mins by UPLC-MS/MS analysis; assay type: ADME, microsomes, Canis lupus familiaris; conditions: microsomes, 1 h, 5 µM
Cytochrome P450 [14] = assay: Drug metabolism in human liver microsome S9 fraction assessed as CYP450-mediated metabolism by measuring compound remaining at 5 uM pretreated with NADPH and measured after 30 mins by UPLC-MS/MS analysis; assay type: ADME, microsomes; conditions: microsomes, 0.5 h, 5 µM
Cytochrome P450 [15] = assay: Drug metabolism in human liver microsome S9 fraction assessed as CYP450-mediated metabolism by measuring compound remaining at 5 uM pretreated with NADPH and measured after 60 mins by UPLC-MS/MS analysis; assay type: ADME, microsomes; conditions: microsomes, 1 h, 5 µM
Trypanosoma cruzi [16] = assay: Antiparasitic activity against Trypanosoma cruzi Y strain bloodstream trypomastigotes infected in Swiss Webster mouse assessed as decrease in parasitemia at 100 mg/kg, po sid via gavage administered for 5 consecutive days measured at day 8 post infection by direct microscopic counting; assay type: functional, organism-based
Trypanosoma cruzi [17] = assay: (§1) Antiparasitic activity against Trypanosoma cruzi Y strain bloodstream trypomastigotes infected in Swiss Webster mouse assessed as protection against parasite-induced mortality at 25 mg/kg, po bid via gavage administered for 5 consecutive days starting from day 5 post infection measured at day 15 post infection; assay type: functional, organism-based
Trypanosoma cruzi [18] = assay: Trypanocidal activity against Trypanosoma cruzi Y strain bloodstream trypomastigotes isolated from infected Swiss mouse […] assessed as parasite death after 24 hrs by neubauer chamber based light microscopy; assay type: functional, organism-based
Trypanosoma cruzi [19] = assay: Trypanocidal activity against Trypanosoma cruzi Y strain intracellular amastigotes infected in mouse cardiac cells assessed as parasite death after 168 hrs by Giemsa-staining based assay; assay type: functional, organism-based
[20] = Cytotoxicity against Swiss mouse embryonic cardiomyocytes assessed as reduction in cell viability after 24 hrs by prestoblue-staining based colorimetry; conditions: Cardiac muscle cell
Trypanosoma cruzi [21] = assay: as §1, with “100” for “25”, “sid” for “bid”; assay type: functional, organism-based
Trypanosoma cruzi [22] = assay: Antiparasitic activity against Trypanosoma cruzi Y strain bloodstream trypomastigotes infected in Swiss Webster mouse at 100 mg/kg, po sid via gavage administered for 5 consecutive days starting from day 5 post infection followed by cyclophosphamide-induced immunosuppression on day 40 post infection for 4 consecutive days; assay type: functional, organism-based
[23] = Drug metabolism in mouse liver microsome S9 fraction assessed as UGT-mediated metabolism by measuring compound remaining at 5 uM pretreated with UDPGA and measured after 15 mins by UPLC-MS/MS analysis; assay type: ADME, microsomes; conditions: microsomes, 0.25 h, 5 µM
[24] = Drug metabolism in mouse liver microsome S9 fraction assessed as UGT-mediated metabolism by measuring compound remaining at 5 uM pretreated with UDPGA and measured after 30 mins by UPLC-MS/MS analysis; assay type: ADME, microsomes; conditions: microsomes, 0.5 h, 5 µM
[25] = Drug metabolism in mouse liver microsome S9 fraction assessed as UGT-mediated metabolism by measuring compound remaining at 5 uM pretreated with UDPGA and measured after 60 mins by UPLC-MS/MS analysis; assay type: ADME, microsomes; conditions: microsomes, 1 h, 5 µM
[26] = Drug metabolism in rat liver microsome S9 fraction assessed as UGT-mediated metabolism by measuring compound remaining at 5 uM pretreated with UDPGA and measured after 15 mins by UPLC-MS/MS analysis; assay type: ADME, microsomes; conditions: microsomes, 0.25 h, 5 µM
[27] = Drug metabolism in rat liver microsome S9 fraction assessed as UGT-mediated metabolism by measuring compound remaining at 5 uM pretreated with UDPGA and measured after 30 mins by UPLC-MS/MS analysis; assay type: ADME, microsomes; conditions: microsomes, 0.5 h, 5 µM
[28] = Drug metabolism in rat liver microsome S9 fraction assessed as UGT-mediated metabolism by measuring compound remaining at 5 uM pretreated with UDPGA and measured after 60 mins by UPLC-MS/MS analysis; assay type: ADME, microsomes; conditions: microsomes, 1 h, 5 µM
[29] = Drug metabolism in dog liver microsome S9 fraction assessed as UGT-mediated metabolism by measuring compound remaining at 5 uM pretreated with UDPGA and measured after 30 mins by UPLC-MS/MS analysis; assay type: ADME, microsomes, Canis lupus familiaris; conditions: microsomes, 0.5 h, 5 µM
[30] = Drug metabolism in dog liver microsome S9 fraction assessed as UGT-mediated metabolism by measuring compound remaining at 5 uM pretreated with UDPGA and measured after 15 mins by UPLC-MS/MS analysis; assay type: ADME, microsomes, Canis lupus familiaris; conditions: microsomes, 0.25 h, 5 µM
[31] = Drug metabolism in dog liver microsome S9 fraction assessed as UGT-mediated metabolism by measuring compound remaining at 5 uM pretreated with UDPGA and measured after 60 mins by UPLC-MS/MS analysis; assay type: ADME, microsomes, Canis lupus familiaris; conditions: microsomes, 1 h, 5 µM
[32] = tested on: UDP-glucuronosyltransferases (UGTs); assay: Drug metabolism in human liver microsome S9 fraction assessed as UGT-mediated metabolism by measuring compound remaining at 5 uM pretreated with UDPGA and measured after 15 mins by UPLC-MS/MS analysis; assay type: ADME, microsomes; conditions: microsomes, 0.25 h, 5 µM
[33] = tested on: UDP-glucuronosyltransferases (UGTs); assay: Drug metabolism in human liver microsome S9 fraction assessed as UGT-mediated metabolism by measuring compound remaining at 5 uM pretreated with UDPGA and measured after 30 mins by UPLC-MS/MS analysis; assay type: ADME, microsomes; conditions: microsomes, 0.5 h, 5 µM
[34] = tested on: UDP-glucuronosyltransferases (UGTs); assay: Drug metabolism in human liver microsome S9 fraction assessed as UGT-mediated metabolism by measuring compound remaining at 5 uM pretreated with UDPGA and measured after 60 mins by UPLC-MS/MS analysis; assay type: ADME, microsomes; conditions: microsomes, 1 h, 5 µM

Cc1ccc(-c2cn([C@@H]3O[C@H](CO)C[C@H]3O)c3ncnc(N)c23)cc1 showed a selectivity ratio [1] of 46, an EC50 (Trypanosoma cruzi [2]; read-out: EC50) of 460 nM and an EC50 [3] of 21000 nM.
With Nc1ncnc2c1c(-c1cc(Cl)cc(Cl)c1)cn2[C@@H]1O[C@H](CO)C[C@H]1O the selectivity ratio [1] was 55, the EC50 (Trypanosoma cruzi [2]; read-out: EC50) was 550 nM and the EC50 [3] was 30200 nM.
For OC(Cn1cncn1)(Cn1cncn1)c1ccc(F)cc1F [FLUCONAZOLE], the Stability (Cytochrome P450 [4]) was “Stable”, the Stability [5] was “Stable” and the Stability [6] was “Stable”. The Stability [7] was “Stable”, the Stability [8] was “Stable” and the Stability [9] was “Stable”. For the same compound, the Stability [10] was “Stable”, the Stability [11] was “Stable” and the Stability [12] was “Stable”. The Stability [13] was “Stable”, the Stability (Cytochrome P450 [14]) was “Stable” and the Stability (Cytochrome P450 [15]) was “Stable”.
In the case of O=C(Cn1ccnc1[N+](=O)[O-])NCc1ccccc1 [BENZNIDAZOLE], the EC50 (Trypanosoma cruzi [2]) is reported as 2280 nM, the Activity (Trypanosoma cruzi [16]) is reported as “Active” and the Activity (Trypanosoma cruzi [17]) is reported as “Active”. It also gave an EC50 (Trypanosoma cruzi [18]) of 11500 nM, an EC50 (Trypanosoma cruzi [19]) of 354 nM and an EC50 [20] of over 400000 nM. The Activity (Trypanosoma cruzi [21]) was “Active” and the Activity (Trypanosoma cruzi [22]) was “inactive”.
Compound Nc1ncnc2c1c(-c1ccc(F)c(Cl)c1)cn2[C@@H]1O[C@H](CO)C[C@H]1O has a selectivity ratio [1] of 150, an EC50 (Trypanosoma cruzi [2]; read-out: EC50) of 300 nM and an EC50 [3] of 45500 nM.
With O=C(O)Cc1ccccc1Nc1c(Cl)cccc1Cl [DICLOFENAC] the Stability (Cytochrome P450 [4]) was “Unstable”, the Stability [5] was “Unstable” and the Stability [6] was “Unstable”. For the same compound, the Stability [7] was “Unstable”, the Stability [23] was “Unstable” and the Stability [24] was “Unstable”. The Stability [25] was “Unstable”, the Stability [8] was “Unstable” and the Stability [9] was “Unstable”. The Stability [10] was “Unstable”, the Stability [26] was “Unstable” and the Stability [27] was “Unstable”. For the same compound, the Stability [28] was “Unstable”, the Stability [11] was “Unstable” and the Stability [12] was “Unstable”. For the same compound, the Stability [29] was “Unstable”, the Stability [13] was “Unstable” and the Stability [30] was “Unstable”. For the same compound, the Stability [31] was “Unstable”, the Stability (Cytochrome P450 [14]) was “Unstable” and the Stability (Cytochrome P450 [15]) was “Unstable”. For the same compound, the Stability [32] was “Unstable”, the Stability [33] was “Unstable” and the Stability [34] was “Unstable”.
Compound Nc1ncnc2c1c(-c1ccc(Cl)c(F)c1)cn2[C@@H]1O[C@H](CO)C[C@H]1O has a selectivity ratio [1] of 260, an EC50 (Trypanosoma cruzi [2]; read-out: EC50) of 71 nM and an EC50 [3] of 18600 nM.
